Results from patent US20240165243A1, “EGFR DEGRADERS AND METHODS OF USE” (BeiGene Switzerland GmbH, priority 2021, published 2024).

System: EGFR (Del19/T790M/C797S)
Assay: Cell degradation HTRF assay, H1975-clone #28 cells
Type: cell-based
Details: H1975-clone #28 (Del19/T790M/C797S) cells, 16 h treatment; for DC50: HTRF, read-out: H1975-clone#28 DTC DC50; for H1975-clone#28 DTC Dmax (%): maximum percentage of degradation
Method: Cell Degradation of Example 124-189
H1975-#28 and H1975-#25 cells are treated with compounds diluted in 0.2% DMSO cell culture medium on day 2, incubate for 16 h, 37° C., 5% CO2. the final concentration of compounds in all assay is start with 10 uM, 5-fold dilution, total 8 doses were included.
After 16 h treatment, add HTRF lysis buffer to each well; seal the plate and incubate 1 hour at room temperature on a plate shaker; Once the cells are lysed, 16 μL of cell lysate are transferred to a PE 384-well HTRF detection plate; 4 μL of pre-mixed HTRF antibodies are added to each well; Cover the plate with a plate sealer, spin 1000 rpm for 1 min, Incubate overnight at room temperature; Read on BMG PheraStar with HTRF protocol (337 nm-665 nm-620 nm).
The inhibition (degradation) percentage of the compound was calculated by the following equation:
Inhibition percentage of Compound=100−100×(Signal−low control)/(High control−low control), wherein signal=each test compound group.
High control=Cell group with added DMSO and without compound, indicating microplate readings without EGFR degradation;
Dmax is the maximum percentage of inhibition (degradation).
The IC50 (DC50) value of a compound can be obtained by fitting the following equation
Y=Bottom+(TOP−Bottom)/(1+((IC50/X)^hillslope))
Wherein, X and Y are known values, and IC50, Hillslope, Top and Bottom are the parameters obtained by fitting with software. Y is the inhibition percentage (calculated from the equation), X is the concentration of the compound; IC50 is the concentration of the compound when the 50% inhibition is reached. The smaller the IC50 value is, the stronger the inhibitory ability of the compound is. Vice versa, the higher the IC50 value is, the weaker the ability the inhibitory ability of the compound is; Hillslope represents the slope of the fitted curve, generally around 1*; Bottom represents the minimum value of the curve obtained by data fitting, which is generally 0%±20%; Top represents the maximum value of the curve obtained by data fitting, which is generally 100%±20%. The experimental data were fitted by calculating and analyzing with Dotmatics data analysis software. When Dmax<50%, DC50 will be automatically assigned as larger than […].

| DC50 [nM] | SMILES | H1975-clone#28 DTC Dmax (%) |
| --- | --- | --- |
| 5.5 | CCc1cc(Nc2ncc(Br)c(Nc3cnc4ccccc4c3P(C)(C)=O)n2)c(OC)cc1N1CCC(N2CCN(CCc3ccc4c(c3)C(C)(C)C(=O)N4C3CCC(=O)NC3=O)CC2)CC1 (stereo not shown) [Example 175, 3-(5-(2-(4-(1-(4-((5-bromo-4-((4-(dimethylphosphoryl)quinolin-3-yl)amino)pyrimidin-2-yl)amino)-2-ethyl-5-methoxyphenyl)piperidin-4-yl)piperazin-1-yl)ethyl)-3,3-dimethyl-2-oxoindolin-1-yl)piperidine-2,6-dione] | 47 |
| 1.6 | CCc1cc(Nc2ncc(Br)c(Nc3cnc4ccccc4c3P(C)(C)=O)n2)c(OC)cc1N1CCC(N2CCN(CCc3ccc4c(c3)oc(=O)n4C3CCC(=O)NC3=O)CC2)CC1 (stereo not shown) [Example 176, 3-(6-(2-(4-(1-(4-((5-bromo-4-((4-(dimethylphosphoryl)quinolin-3-yl)amino)pyrimidin-2-yl)amino)-2-ethyl-5-methoxyphenyl)piperidin-4-yl)piperazin-1-yl)ethyl)-2-oxobenzo[d]oxazol-3(2H)-yl)piperidine-2,6-dione] | 73 |
| 2.6 | CCc1cc(Nc2ncc(Br)c(Nc3cnc4ccccc4c3P(C)(C)=O)n2)c(OC)cc1N1CCC(N2CCN(C(=O)C3CC4(C3)CN(c3cc(F)c(C5CCC(=O)NC5=O)c(F)c3)C4)CC2)CC1 (stereo not shown) [Example 178, 3-(4-(6-(4-(1-(4-((5-bromo-4-((4-(dimethylphosphoryl)quinolin-3-yl)amino)pyrimidin-2-yl)amino)-2-ethyl-5-methoxyphenyl)piperidin-4-yl)piperazine-1-carbonyl)-2-azaspiro[3.3]heptan-2-yl)-2,6-difluorophenyl)piperidine-2,6-dione] | 67 |
| 2.6 | COc1cc(N2CCC(N3CCN(C(=O)C4CN(c5cccc6c5n(C)c(=O)n6C5CCC(=O)NC5=O)C4)CC3)CC2)c(C)cc1Nc1ncc(Br)c(Nc2cnc3ccccc3c2P(C)(C)=O)n1 (stereo not shown) [Example 179, 3-(4-(3-(4-(1-(4-((5-bromo-4-((4-(dimethylphosphoryl)quinolin-3-yl)amino)pyrimidin-2-yl)amino)-5-methoxy-2-methylphenyl)piperidin-4-yl)piperazine-1-carbonyl)azetidin-1-yl)-3-methyl-2-oxo-2,3-dihydro-1H-benzo[d]imidazol-1-yl)piperidine-2,6-dione] | 54 |
| 2 | CCc1cc(Nc2ncc(Br)c(Nc3cnc4ccccc4c3P(C)(C)=O)n2)c(OC)cc1N1CCC(N2CCN(CCc3cc(F)c(C4CCC(=O)NC4=O)c(F)c3F)CC2)CC1 (stereo not shown) [Example 180, 3-(4-(2-(4-(1-(4-((5-bromo-4-((4-(dimethylphosphoryl)quinolin-3-yl)amino)pyrimidin-2-yl)amino)-2-ethyl-5-methoxyphenyl)piperidin-4-yl)piperazin-1-yl)ethyl)-2,3,6-trifluorophenyl)piperidine-2,6-dione] | 83 |
| 4.2 | CCc1cc(Nc2ncc(Br)c(Nc3cnc4c(F)cccc4c3P(C)(C)=O)n2)c(OC)cc1N1CCC(N2CCN(CCc3cc(F)c(C4CCC(=O)NC4=O)c(F)c3)CC2)CC1 (stereo not shown) [Example 181, 3-(4-(2-(4-(1-(4-((5-bromo-4-((4-(dimethylphosphoryl)-8-fluoroquinolin-3-yl)amino)pyrimidin-2-yl)amino)-2-ethyl-5-methoxyphenyl)piperidin-4-yl)piperazin-1-yl)ethyl)-2,6-difluorophenyl)piperidine-2,6-dione] | 82 |
| 0.8 | CCc1cc(Nc2ncc(Br)c(Nc3cnc4c(F)cccc4c3P(C)(C)=O)n2)c(OC)cc1N1CCC(N2CCN(C(=O)C3CCN(c4ccc5c(c4)C(C)(C)C(=O)N5C4CCC(=O)NC4=O)CC3)CC2)CC1 (stereo not shown) [Example 182, 3-(5-(4-(4-(1-(4-((5-bromo-4-((4-(dimethylphosphoryl)-8-fluoroquinolin-3-yl)amino)pyrimidin-2-yl)amino)-2-ethyl-5-methoxyphenyl)piperidin-4-yl)piperazine-1-carbonyl)piperidin-1-yl)-3,3-dimethyl-2-oxoindolin-1-yl)piperidine-2,6-dione] | 56 |
| 4.6 | CCOc1cc(N2CCC(N3CCN(CCc4cc(F)c(C5CCC(=O)NC5=O)c(F)c4)CC3)CC2)c(C)cc1Nc1ncc(Br)c(Nc2cnc3ccccc3c2P(C)(C)=O)n1 (stereo not shown) [Example 183, 3-(4-(2-(4-(1-(4-((5-bromo-4-((4-(dimethylphosphoryl)quinolin-3-yl)amino)pyrimidin-2-yl)amino)-5-ethoxy-2-methylphenyl)piperidin-4-yl)piperazin-1-yl)ethyl)-2,6-difluorophenyl)piperidine-2,6-dione] | 73 |
| 1.5 | CCc1cc(Nc2ncc(Br)c(Nc3cnc4ccccc4c3P(C)(C)=O)n2)c(OC)cc1N1CCC(N2CCN([C@H]3C[C@H](c4cc(F)c(C5CCC(=O)NC5=O)c(F)c4)C3)CC2)CC1 (stereo partly shown) [Example 184, 3-(4-((1r,3r)-3-(4-(1-(4-((5-bromo-4-((4-(dimethylphosphoryl)quinolin-3-yl)amino)pyrimidin-2-yl)amino)-2-ethyl-5-methoxyphenyl)piperidin-4-yl)piperazin-1-yl)cyclobutyl)-2,6-difluorophenyl)piperidine-2,6-dione] | 81 |
| 1.2 | CCc1cc(Nc2ncc(Br)c(Nc3cnc4ccccc4c3P(C)(C)=O)n2)c(OC)cc1N1CCC(N2CCN(C(=O)C3CCN(c4cc(F)c(C5CCC(=O)NC5=O)c(F)c4)CC3)CC2)CC1 (stereo not shown) [Example 185, 3-(4-(4-(4-(1-(4-((5-bromo-4-((4-(dimethylphosphoryl)quinolin-3-yl)amino)pyrimidin-2-yl)amino)-2-ethyl-5-methoxyphenyl)piperidin-4-yl)piperazine-1-carbonyl)piperidin-1-yl)-2,6-difluorophenyl)piperidine-2,6-dione] | 71 |
| 8 | CCc1cc(Nc2ncc(Br)c(Nc3cnc4ccccc4c3P(C)(C)=O)n2)c(OCC(F)(F)F)cc1N1CCC(N2CCN(CCC3CCN(c4cc(F)c(C5CCC(=O)NC5=O)c(F)c4)CC3)CC2)CC1 (stereo not shown) [Example 186, 3-(4-(4-(2-(4-(1-(4-((5-bromo-4-((4-(dimethylphosphoryl)quinolin-3-yl)amino)pyrimidin-2-yl)amino)-2-ethyl-5-(2,2,2-trifluoroethoxy)phenyl)piperidin-4-yl)piperazin-1-yl)ethyl)piperidin-1-yl)-2,6-difluorophenyl)piperidine-2,6-dione] | 72 |
| 3.3 | CCc1cc(Nc2ncc(Br)c(Nc3cnc4ccccc4c3P(C)(C)=O)n2)c(OCC(F)(F)F)cc1N1CCC(N2CCN(CCc3cc(F)c(C4CCC(=O)NC4=O)c(F)c3)CC2)CC1 (stereo not shown) [Example 187, 3-(4-(2-(4-(1-(4-((5-bromo-4-((4-(dimethylphosphoryl)quinolin-3-yl)amino)pyrimidin-2-yl)amino)-2-ethyl-5-(2,2,2-trifluoroethoxy)phenyl)piperidin-4-yl)piperazin-1-yl)ethyl)-2,6-difluorophenyl)piperidine-2,6-dione] | 69 |
| 0.8 | CCc1cc(Nc2ncc(Br)c(Nc3cnc4ccccc4c3P(C)(C)=O)n2)c(OC)cc1N1CCC(N2CCN(CCc3cccc4c3oc(=O)n4C3CCC(=O)NC3=O)CC2)CC1 (stereo not shown) [Example 188, 3-(7-(2-(4-(1-(4-((5-bromo-4-((4-(dimethylphosphoryl)quinolin-3-yl)amino)pyrimidin-2-yl)amino)-2-ethyl-5-methoxyphenyl)piperidin-4-yl)piperazin-1-yl)ethyl)-2-oxobenzo[d]oxazol-3(2H)-yl)piperidine-2,6-dione] | 84 |
| 2.4 | CCc1cc(Nc2ncc(Br)c(Nc3cnc4ccccc4c3P(C)(C)=O)n2)c(OC)cc1N1CCC(N2CCN(C(=O)CN(C)c3cc(F)c(C4CCC(=O)NC4=O)c(F)c3)CC2)CC1 (stereo not shown) [Example 189, 3-(4-((2-(4-(1-(4-((5-bromo-4-((4-(dimethylphosphoryl)quinolin-3-yl)amino)pyrimidin-2-yl)amino)-2-ethyl-5-methoxyphenyl)piperidin-4-yl)piperazin-1-yl)-2-oxoethyl)(methyl)amino)-2,6-difluorophenyl)piperidine-2,6-dione] | 77 |
